Laboratory results reported in PubChem BioAssay (NCI).
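Method: 48-hour compound exposure of cells in 96-well plates, five concentrations, linear interpolation of endpoints. TGI denotes the concentration required for complete inhibition of growth.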

Columns and labels:
Experiment in all cases: inhibition of tumour cell growth, NCI panel, 48 h
786-0 renal = system: 786-0 renal
A498 renal = system: A498 renal
A549 NSCLC = system: A549 NSCLC
ACHN renal = system: ACHN renal
CAKI-1 renal = system: CAKI-1 renal
CCRF-CEM leukemia = system: CCRF-CEM leukemia
COLO 205 colon = system: COLO 205 colon
DLD-1 colon = system: DLD-1 colon
DMS 114 small cell lung = system: DMS 114 small cell lung
DMS 273 small cell lung = system: DMS 273 small cell lung
HCC-2998 colon = system: HCC-2998 colon
HCT-116 colon = system: HCT-116 colon
HCT-15 colon = system: HCT-15 colon
HL-60(TB) leukemia = system: HL-60(TB) leukemia
HOP-18 NSCLC = system: HOP-18 NSCLC
HOP-62 NSCLC = system: HOP-62 NSCLC
HOP-92 NSCLC = system: HOP-92 NSCLC
HT29 colon = system: HT29 colon
IGROV1 ovarian = system: IGROV1 ovarian
K-562 leukemia = system: K-562 leukemia
LOX IMVI melanoma = system: LOX IMVI melanoma
LXFL 529 NSCLC = system: LXFL 529 NSCLC
M14 melanoma = system: M14 melanoma
M19-MEL melanoma = system: M19-MEL melanoma
MALME-3M melanoma = system: MALME-3M melanoma
MOLT-4 leukemia = system: MOLT-4 leukemia
NCI-H226 lung = system: NCI-H226 lung
NCI-H23 lung = system: NCI-H23 lung
NCI-H460 lung = system: NCI-H460 lung
OVCAR-3 ovarian = system: OVCAR-3 ovarian
OVCAR-4 ovarian = system: OVCAR-4 ovarian
OVCAR-5 ovarian = system: OVCAR-5 ovarian
OVCAR-8 ovarian = system: OVCAR-8 ovarian
RPMI-8226 leukemia = system: RPMI-8226 leukemia
RXF-631 renal = system: RXF-631 renal
SF-268 CNS = system: SF-268 CNS
SF-295 CNS = system: SF-295 CNS
SK-MEL-28 melanoma = system: SK-MEL-28 melanoma
SK-MEL-5 melanoma = system: SK-MEL-5 melanoma
SK-OV-3 ovarian = system: SK-OV-3 ovarian
SN12C renal = system: SN12C renal
SNB-19 CNS = system: SNB-19 CNS
SW-620 colon = system: SW-620 colon
TK-10 renal = system: TK-10 renal
U251 CNS = system: U251 CNS
UACC-257 melanoma = system: UACC-257 melanoma
UACC-62 melanoma = system: UACC-62 melanoma
UO-31 renal = system: UO-31 renal
EKVX NSCLC = system: EKVX NSCLC
KM12 colon = system: KM12 colon
KM20L2 colon = system: KM20L2 colon
NCI-H522 lung = system: NCI-H522 lung
SF-539 CNS = system: SF-539 CNS
SK-MEL-2 melanoma = system: SK-MEL-2 melanoma
SNB-75 CNS = system: SNB-75 CNS
SNB-78 CNS = system: SNB-78 CNS

Structure (SMILES): CCCCCCCCOCC(CO)OCCCCCCCC (centres undefined)
- TGI (786-0 renal): 33.9 µM
- TGI (A498 renal): 42 µM
- TGI (A549 NSCLC): 37.2 µM
- TGI (ACHN renal): 31.8 µM
- TGI (CAKI-1 renal): > 100 µM
- TGI (CCRF-CEM leukemia): 42.5 µM
- TGI (COLO 205 colon): 39.7 µM
- TGI (DLD-1 colon): 33.1 µM
- TGI (DMS 114 small cell lung): 42.3 µM
- TGI (DMS 273 small cell lung): 33.4 µM
- TGI (HCC-2998 colon): 33.6 µM
- TGI (HCT-116 colon): 33.6 µM
- TGI (HCT-15 colon): 29.7 µM
- TGI (HL-60(TB) leukemia): 34.1 µM
- TGI (HOP-18 NSCLC): 24.5 µM
- TGI (HOP-62 NSCLC): 37.2 µM
- TGI (HOP-92 NSCLC): 49.2 µM
- TGI (HT29 colon): 36.6 µM
- TGI (IGROV1 ovarian): 40.8 µM
- TGI (K-562 leukemia): 32.4 µM
- TGI (LOX IMVI melanoma): 32 µM
- TGI (LXFL 529 NSCLC): 33.1 µM
- TGI (M14 melanoma): 67.1 µM
- TGI (M19-MEL melanoma): 36.3 µM
- TGI (MALME-3M melanoma): 34.9 µM
- TGI (MOLT-4 leukemia): 37.9 µM
- TGI (NCI-H226 lung): 44.9 µM
- TGI (NCI-H23 lung): 33 µM
- TGI (NCI-H460 lung): 30 µM
- TGI (OVCAR-3 ovarian): 34.2 µM
- TGI (OVCAR-4 ovarian): 34.7 µM
- TGI (OVCAR-5 ovarian): 32.7 µM
- TGI (OVCAR-8 ovarian): 37.7 µM
- TGI (RPMI-8226 leukemia): 42.5 µM
- TGI (RXF-631 renal): 32 µM
- TGI (SF-268 CNS): 29.7 µM
- TGI (SF-295 CNS): 30.5 µM
- TGI (SK-MEL-28 melanoma): 34.2 µM
- TGI (SK-MEL-5 melanoma): 33.8 µM
- TGI (SK-OV-3 ovarian): > 100 µM
- TGI (SN12C renal): 31.8 µM
- TGI (SNB-19 CNS): 41.8 µM
- TGI (SW-620 colon): 37.4 µM
- TGI (TK-10 renal): 34.4 µM
- TGI (U251 CNS): 32.3 µM
- TGI (UACC-257 melanoma): 37.1 µM
- TGI (UACC-62 melanoma): 43.3 µM
- TGI (UO-31 renal): 35.9 µM

Structure (SMILES): COc1c(C)c(O)c2c(=O)cc(-c3ccccc3)oc2c1C
- TGI (786-0 renal): > 100 µM
- TGI (A498 renal): > 100 µM
- TGI (A549 NSCLC): > 100 µM
- TGI (ACHN renal): > 100 µM
- TGI (CAKI-1 renal): > 100 µM
- TGI (CCRF-CEM leukemia): > 100 µM
- TGI (DLD-1 colon): > 100 µM
- TGI (DMS 114 small cell lung): > 100 µM
- TGI (EKVX NSCLC): > 100 µM
- TGI (HCC-2998 colon): > 100 µM
- TGI (HCT-116 colon): > 100 µM
- TGI (HCT-15 colon): > 100 µM
- TGI (HOP-18 NSCLC): > 100 µM
- TGI (HOP-62 NSCLC): > 100 µM
- TGI (HOP-92 NSCLC): > 100 µM
- TGI (HT29 colon): > 100 µM
- TGI (IGROV1 ovarian): > 100 µM
- TGI (K-562 leukemia): > 100 µM
- TGI (KM12 colon): > 100 µM
- TGI (KM20L2 colon): > 100 µM
- TGI (LOX IMVI melanoma): > 100 µM
- TGI (LXFL 529 NSCLC): > 100 µM
- TGI (M14 melanoma): > 100 µM
- TGI (M19-MEL melanoma): > 100 µM
- TGI (MALME-3M melanoma): > 100 µM
- TGI (MOLT-4 leukemia): > 100 µM
- TGI (NCI-H226 lung): > 100 µM
- TGI (NCI-H23 lung): > 100 µM
- TGI (NCI-H460 lung): > 100 µM
- TGI (NCI-H522 lung): > 100 µM
- TGI (OVCAR-3 ovarian): > 100 µM
- TGI (OVCAR-4 ovarian): > 100 µM
- TGI (OVCAR-5 ovarian): > 100 µM
- TGI (OVCAR-8 ovarian): > 100 µM
- TGI (RXF-631 renal): > 100 µM
- TGI (SF-268 CNS): > 100 µM
- TGI (SF-295 CNS): > 100 µM
- TGI (SF-539 CNS): > 100 µM
- TGI (SK-MEL-2 melanoma): > 100 µM
- TGI (SK-MEL-28 melanoma): > 100 µM
- TGI (SK-MEL-5 melanoma): > 100 µM
- TGI (SK-OV-3 ovarian): > 100 µM
- TGI (SN12C renal): > 100 µM
- TGI (SNB-75 CNS): > 100 µM
- TGI (SNB-78 CNS): > 100 µM
- TGI (SW-620 colon): > 100 µM
- TGI (TK-10 renal): > 100 µM
- TGI (U251 CNS): > 100 µM
- TGI (UACC-257 melanoma): > 100 µM
- TGI (UACC-62 melanoma): > 100 µM
- TGI (UO-31 renal): > 100 µM
